Assays:
Format in all cases: cell-based
[1] = biological target: T1, GATA4–NKX2-5 transcriptional synergy (Mus musculus, UniProt P42582+Q08369); experiment: GATA4–NKX2-5 transcriptional synergy luciferase reporter assay (3xNKE reporter, COS-1 cells); conditions: COS-1, luciferase reporter activity relative to control
T1 construct: expressed in transfected cells; host or cells: COS-1

[2] = biological target: T2, NKX2-5 transcriptional activity (Mus musculus, UniProt P42582); experiment: NKX2-5 luciferase reporter assay (3xNKE reporter, COS-1 cells); conditions: COS-1, luciferase reporter activity relative to control; for activity at 3 µM: read-out: NKX.3µM; for activity at 10 µM: read-out: NKX.10µM
T2 construct: expressed in transfected cells; host or cells: COS-1

[3] = biological target: T3, GATA4 transcriptional activity (Mus musculus, UniProt Q08369); experiment: GATA4 luciferase reporter assay (tandem GATA-site reporter, COS-1 cells); conditions: COS-1, luciferase reporter activity relative to control
T3 construct: expressed in transfected cells; host or cells: COS-1

COS-1 cells [4] = experiment: LDH assay (necrosis)
COS-1 cells [5] = experiment: MTT assay (cell viability); conditions: cell viability
[6] = tested on: rat BNP promoter activity in neonatal rat ventricular myocytes; experiment: BNP promoter luciferase reporter in neonatal cardiomyocytes with or without endothelin-1; conditions: neonatal cardiomyocytes, 24 h
Experimental: Five compounds (GATA4–NKX2-5 synergy inhibitors 1, 61, and 65; the synergy activator 2; and the NKX2-5 activity inhibitor 47c) were selected for studies in neonatal cardiomyocytes, which were treated with endothelin-1 (ET-1), a well-established hypertrophic agonist that activates the gene expression of both ANP and BNP (Figure 4). The myocytes were transfected with construct containing −534/+4 proximal region of rat BNP promoter with GATA4 and NKX2-5 binding sites in front of luciferase before exposure to compounds and ET-1, which was added 1 h after the compounds.
Figure 4 Effects of the compounds 1, 2, 47c, 61, and 65 on BNP gene activation in cardiomyocytes. Neonatal cardiomyocytes were transfected with rat BNP luciferase reporter for 24 h. The cells were exposed to compounds and 1 h later to endothelin-1 (ET-1) for 24 h. The results are expressed as +SD (n = 3 or 9 for DMSO groups). ***P < 0.001 vs DMSO; **P < 0.01 vs DMSO; *P < 0.05 vs DMSO (one-way ANOVA followed by Tukey’s HSD or Welch ANOVA followed by Games–Howell); ^###P < 0.001 vs DMSO, no stimulus (independent samples Student’s t test).
The plasmids expressing mouse GATA4 protein, pMT2-GATA4, and empty pMT2 were gifts from D. B. Wilson (Department of Pediatrics, St. Louis Children’s Hospital, St. Louis, MO).[44] The plasmids expressing mouse NKX2-5 protein, pMT2-NKX2-5, have been described earlier.[28] The luciferase reporter plasmid used in GATA4–NKX2-5 transcriptional synergy assay and NKX transcriptional assay, pGL3-3xHA, contains three high affinity binding sites for NKX2-5.[28] The luciferase reporter plasmid used in GATA transcriptional assay, NP-112, contains tandem GATA-sites and minimal promoter of rat brain natriuretic peptide (BNP) gene.[45] The pGL3-BNP luciferase reporter containing −534/+4 bp rat BNP proximal promoter described previously was used in hypertrophy assay.[46]
The neonatal rat ventricular myocytes were isolated from 2- to 3-day-old Wistar rats, as described earlier.[29],[32] Rat pups were acquired from the experimental animal facility of the University of Helsinki with an internal use license (KEK17-012). Animals were housed in standard conditions, and their handling and all procedures were carried out in accordance with University of Helsinki institutional guidelines, which conform to the National Research Council (U.S.) Guide for the Care and Use of Laboratory Animals.[47] The cells were seeded at 50 000 cells/well in Isoplate-96 microplates (PerkinElmer, Turku, Finland) and cultured for 18–20 h with Dulbecco’s modified Eagle medium (DMEM)/F12 culture medium containing 2.5 mM L-glutamine, supplemented with 100 IU/mL penicillin–streptomycin and 10% fetal bovine serum (all from Gibco, Thermo Scientific). Transfections were carried out for 24 h in serum free media (CSFM; DMEM/F12, 2.5 mg/mL bovine serum albumin, 1 μM insulin, 2.5 mM L-glutamine, 32 nM selenium, 2.8 mM sodium pyruvate, 5.64 μg/mL transferrin, 1 nM T3, and 100 IU/mL PS) by using 100 ng of pGL3-BNP luciferase plasmid per well in a 1:3 ratio of DNA/transfection reagent (Fugene 6, Promega). […] After 24 h, the luminescence was measured as above.
Results from cardiomyocyte experiments are expressed as mean + SD from at least three independent experiments. Data were analyzed using IBM SPSS Statistics 24 software. […] Significance between ET-1 and DMSO samples was analyzed with independent samples Student’s t test. […]

T3 sequence (Q08369 whole entry): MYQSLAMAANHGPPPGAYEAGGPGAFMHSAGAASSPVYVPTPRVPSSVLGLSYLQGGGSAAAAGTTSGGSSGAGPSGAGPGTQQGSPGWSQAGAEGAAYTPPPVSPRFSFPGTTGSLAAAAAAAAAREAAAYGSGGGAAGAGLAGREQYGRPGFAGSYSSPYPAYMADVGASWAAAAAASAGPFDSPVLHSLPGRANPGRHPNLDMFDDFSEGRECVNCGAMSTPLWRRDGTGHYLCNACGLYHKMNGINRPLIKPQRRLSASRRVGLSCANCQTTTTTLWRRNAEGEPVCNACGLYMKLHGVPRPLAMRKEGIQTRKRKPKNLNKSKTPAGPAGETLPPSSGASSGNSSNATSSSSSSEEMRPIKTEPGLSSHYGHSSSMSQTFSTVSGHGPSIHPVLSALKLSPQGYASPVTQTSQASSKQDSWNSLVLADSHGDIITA
T1 sequence (Q08369 whole entry): as above
T1 sequence (P42582 whole entry): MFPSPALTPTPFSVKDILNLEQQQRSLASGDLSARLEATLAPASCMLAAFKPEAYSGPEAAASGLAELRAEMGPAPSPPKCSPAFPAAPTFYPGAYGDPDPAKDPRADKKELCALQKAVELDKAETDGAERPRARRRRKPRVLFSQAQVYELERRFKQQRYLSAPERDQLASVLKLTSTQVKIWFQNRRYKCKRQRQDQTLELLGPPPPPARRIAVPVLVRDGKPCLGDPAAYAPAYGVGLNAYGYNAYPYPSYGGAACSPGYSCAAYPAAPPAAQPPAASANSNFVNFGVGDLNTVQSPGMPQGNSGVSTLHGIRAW
T2 sequence (P42582 whole entry): as above

CN(C)c1ccc(NCc2c[nH]nc2-c2ccc(F)cc2)cc1 [SI78]
activity at 3 µM [1]: 67.2%
activity at 10 µM [1]: 42.2%
activity at 3 µM [2]: 70.7%
activity at 10 µM [2]: 43%
activity at 3 µM [3]: 83.7%
activity at 10 µM [3]: 49.1%
LDH.1µM (COS-1 cells [4]): 0.7
LDH.3µM (COS-1 cells [4]): 1
LDH.10µM (COS-1 cells [4]): -1.06
LDH.30µM (COS-1 cells [4]): -2.54
MTT.1µM (COS-1 cells [5]): 105.6
MTT.3µM (COS-1 cells [5]): 102.53
MTT.10µM (COS-1 cells [5]): 103.53
MTT.30µM (COS-1 cells [5]): 103.47

CCN(CC)c1ccc(NCc2c[nH]nc2-c2cc(F)cc(F)c2)cc1 [SI79]
activity at 3 µM [1]: 98.9%
activity at 10 µM [1]: 92.2%
activity at 3 µM [2]: 88.7%
activity at 10 µM [2]: 71.4%
activity at 3 µM [3]: 92.7%
activity at 10 µM [3]: 78.5%
LDH.1µM (COS-1 cells [4]): 2.87
LDH.3µM (COS-1 cells [4]): 1.38
LDH.10µM (COS-1 cells [4]): -0.15
LDH.30µM (COS-1 cells [4]): -0.35
MTT.1µM (COS-1 cells [5]): 101.61
MTT.3µM (COS-1 cells [5]): 103.16
MTT.10µM (COS-1 cells [5]): 104.94
MTT.30µM (COS-1 cells [5]): 103.16

CCN(CC)c1ccc(NC(=O)c2ccnn2-c2ccccc2)cc1 [SI88]
activity at 3 µM [1]: 62.4%
activity at 10 µM [1]: 52.7%
activity at 3 µM [2]: 75.3%
activity at 10 µM [2]: 60.7%
activity at 3 µM [3]: 92.3%
activity at 10 µM [3]: 61.8%
LDH.1µM (COS-1 cells [4]): 2.08
LDH.3µM (COS-1 cells [4]): -0.13
LDH.10µM (COS-1 cells [4]): 0.07
LDH.30µM (COS-1 cells [4]): -1.27
MTT.1µM (COS-1 cells [5]): 105.89
MTT.3µM (COS-1 cells [5]): 89.83
MTT.10µM (COS-1 cells [5]): 83.67
MTT.30µM (COS-1 cells [5]): 88.35

CCN(CC)c1ccc(NC(=O)c2c[nH]nc2-c2ccccc2)cc1 [SI89]
activity at 3 µM [1]: 80.7%
activity at 10 µM [1]: 93.5%
activity at 3 µM [2]: 101%
activity at 10 µM [2]: 89%
activity at 3 µM [3]: 103%
activity at 10 µM [3]: 81.8%
LDH.1µM (COS-1 cells [4]): 2.32
LDH.3µM (COS-1 cells [4]): 1.68
LDH.10µM (COS-1 cells [4]): 1.11
LDH.30µM (COS-1 cells [4]): -1.15
MTT.1µM (COS-1 cells [5]): 100.37
MTT.3µM (COS-1 cells [5]): 105.87
MTT.10µM (COS-1 cells [5]): 100.53
MTT.30µM (COS-1 cells [5]): 96.92

COc1ccc(-c2cc(N)nn2C(=O)c2c(-c3ccccc3)noc2C)cc1 [SI137, [3-Amino-5-(4-methoxyphenyl)-1H-pyrazol-1-yl] (5-methyl-3-phenylisoxazol-4-yl) methanone]
activity at 3 µM [1]: 90.6%
activity at 10 µM [1]: 72.1%
activity at 3 µM [2]: 88%
activity at 10 µM [2]: 65.2%
activity at 3 µM [3]: 85.3%
activity at 10 µM [3]: 76.5%
LDH.1µM (COS-1 cells [4]): 3.49
LDH.3µM (COS-1 cells [4]): 2.98
LDH.10µM (COS-1 cells [4]): 0.2
LDH.30µM (COS-1 cells [4]): -2.71
MTT.1µM (COS-1 cells [5]): 100.57
MTT.3µM (COS-1 cells [5]): 105.12
MTT.10µM (COS-1 cells [5]): 104.9
MTT.30µM (COS-1 cells [5]): 96.15

ET-1: endothelin-1, a well-established hypertrophic agonist that activates the gene expression of both ANP and BNP [reference compound]
increase in BNP gene activity [6]: ~3 fold
